Reference: paper PMC4477702 (The Biochemical journal, 2015)

Columns and labels:
[1] = target: T1, Arabidopsis (At) COG3236 domain of RIBR (Arabidopsis thaliana, UniProt Q9STY4); assay: HPLC-UV product formation; format: biochemical; conditions: pH 8.0, 22°C, 1 h
T1 sequence (Q9STY4 405-599 limits assumed): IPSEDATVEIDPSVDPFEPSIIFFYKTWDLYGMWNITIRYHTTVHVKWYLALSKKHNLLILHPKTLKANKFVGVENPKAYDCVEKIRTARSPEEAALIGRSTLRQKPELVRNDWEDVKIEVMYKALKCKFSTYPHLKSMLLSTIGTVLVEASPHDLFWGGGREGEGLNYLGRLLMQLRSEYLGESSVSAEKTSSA

[2] = target: T2, N. punctiforme (Np) COG3236 (Nostoc punctiforme, UniProt B2J4E5); assay: HPLC-UV product formation; format: biochemical; conditions: pH 8.0, 22°C, 1 h
T2 sequence (B2J4E5 1-156): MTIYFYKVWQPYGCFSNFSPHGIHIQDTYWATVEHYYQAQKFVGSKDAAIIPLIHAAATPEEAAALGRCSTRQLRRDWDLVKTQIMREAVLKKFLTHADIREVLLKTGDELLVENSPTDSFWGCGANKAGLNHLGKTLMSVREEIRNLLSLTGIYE

SMILES | HPLC-UV product formation; diacetyl derivatization ([1]; 2.4 mM substrate, 0.1 μg protein) | HPLC-UV product formation ([2]; 2.4 mM substrate, 1 μg protein) | HPLC-UV product formation; diacetyl derivatization ([1]; 3 mM substrate, 30 μg protein) | HPLC-UV product formation ([2]; 3 mM substrate, 30 μg protein)
Nc1c(N[C@@H]2O[C@H](COP(=O)(O)O)[C@@H](O)[C@H]2O)[nH]c(=O)[nH]c1=O (mixture of isomers) [compound 2, 5-amino-6-ribosylamino-2,4(1H,3H)-pyrimidinedione 5′-phosphate] | All five COG3236 proteins gave rise to a new HPLC peak when mixed with intermediate | All five COG3236 proteins gave rise to a new HPLC peak when mixed with intermediate | – | –
Nc1nc(N[C@@H]2O[C@H](COP(=O)(O)O)[C@@H](O)[C@H]2O)c(N)c(=O)[nH]1 (mixture of isomers) [compound 1, 2,5-diamino-6-ribosylamino-4(3H)-pyrimidinone 5′-phosphate] | – | – | All five COG3236 proteins gave rise to a new HPLC peak when mixed with intermediate | All five COG3236 proteins gave rise to a new HPLC peak when mixed with intermediate
